Results taken from US9884863B2, “STAT3 inhibitor” (Board of Regents, The University of Texas System, priority 2013, dated 2018).
Read-outs that look alike come from different tables or passages of the source.

Assays:
[1] = test system: MDA-MB-231; experiment: MTS cell proliferation assay, MDA-MB-231; assay type: cell-based, human; details: Homo sapiens, MDA-MB-231, >10 = no effect
Description: (§1) Cancer cells (breast cancer cell lines MCF-7, MDA-MB-361, SKBR3 and MDA-MB-231, pancreatic cancer cell lines AsPC-1. BxPC3 and Panc-1) were seeded in 96-well plates at a density of 1000-2000 cells/well and treated with DMSO, 0.01, 0.1, 1, 5, 10, and 100 mM of STAT3 individual inhibitors for 72 hrs. Proliferation was measured by treating cells with the 3-(4,5-dimethylthiazol-2-yl)-5-(3-carboxymethoxyphenyl)-2-(4-sulfophenyl)-2H-tetrazolium) (MTS) in a CellTiter 96t AQueous Non-Radioactive Cell Proliferation Assay kit from Promega, Madison, Wis., USA). Absorbance of all wells was determined by measuring OD at 550 nm after 1 hr incubation at 37° C. on a 96-well iMark™ Microplate Absorbance Reader (BioRad, Hercules, Calif.).
In Vitro Determination of Effects of Synthesized Compounds on Cancer Cell Proliferation. Cancer cells (breast cancer cell lines MCF-7 and MDA-MB-231, pancreatic cancer cell lines AsPC-1 and Panc-1) were seeded in 96-well plates at a density of 2×10^3 cells/well and treated with DMSO, 0.01, 0.1, 1, 5, 10, and 100 μM of individual STAT3 inhibitors for 72 h. Proliferation was measured by treating cells with the 3-(4,5-dimethylthiazol-2-yl)-5-(3-carboxymethoxyphenyl)-2-(4-sulfophenyl)-2H-tetrazolium) (MTS) in a CellTiter 96t Aqueous Non-Radioactive Cell Proliferation Assay kit (Promega, Madison, Wis., USA). Absorbance of all wells was determined by measuring OD at 550 nm after 1 h incubation at 37° C. on a 96-well iMark™ Microplate Absorbance Reader (BioRad, Hercules, Calif.). Each individual compound was tested in quadruplicate wells for each concentration. […]

[2] = test system: Panc-1; experiment: MTS cell proliferation assay, Panc-1; assay type: cell-based, human; details: Homo sapiens, PANC-1
Description: as §1, with “Calif.). Each individual compound was tested in quadruplicate wells for each concentration, and the results were reported as mean absorption±s.e.” for “Calif.).”
(§2) In Vitro Determination of Effects of Synthesized Compounds on Cancer Cell Proliferation. Cancer cells (breast cancer cell lines MCF-7 and MDA-MB-231, pancreatic cancer cell lines AsPC-1 and Panc-1) were seeded in 96-well plates at a density of 2×10^3 cells/well and treated with DMSO, 0.01, 0.1, 1, 5, 10, and 100 μM of individual STAT3 inhibitors for 72 h. Proliferation was measured by treating cells with the 3-(4,5-dimethylthiazol-2-yl)-5-(3-carboxymethoxyphenyl)-2-(4-sulfophenyl)-2H-tetrazolium) (MTS) in a CellTiter 96t Aqueous Non-Radioactive Cell Proliferation Assay kit (Promega, Madison, Wis., USA). Absorbance of all wells was determined by measuring OD at 550 nm after 1 h incubation at 37° C. on a 96-well iMark™ Microplate Absorbance Reader (BioRad, Hercules, Calif.). Each individual compound was tested in quadruplicate wells for each concentration.

[3] = test system: MCF-7; experiment: MTS cell proliferation assay, MCF-7; assay type: cell-based, human; details: Homo sapiens, MCF7
Description: as §1, with “BxPC3 and Panc-1) were seeded in 96-well plates at a density of 1000-2000 cells/well and treated with DMSO, 0.01, 0.1, 1, 5, 10, and 100 mM of STAT3 individual inhibitors for 72 hrs.” left out, “Calif.). Each individual compound was tested in quadruplicate wells for each concentration, and the results were reported as mean absorption±s.e.” for “Calif.).”
In Vitro Determination of Effects of Synthesized Compounds on Cancer Cell Proliferation. Cancer cells (breast cancer cell lines MCF-7 and MDA-MB-231, pancreatic cancer cell lines AsPC-1 and Panc-1) were […], 0.01, 0.1, 1, 5, 10, […] Proliferation was measured by treating cells with the 3-(4,5-dimethylthiazol-2-yl)-5-(3-carboxymethoxyphenyl)-2-(4-sulfophenyl)-2H-tetrazolium) (MTS) in a CellTiter 96t Aqueous Non-Radioactive Cell Proliferation Assay kit (Promega, Madison, Wis., USA). Absorbance of all wells was determined by measuring OD at 550 nm after 1 h incubation at 37° C. on a 96-well iMark™ Microplate Absorbance Reader (BioRad, Hercules, Calif.). Each individual compound was tested in quadruplicate wells for each concentration.

[4] = test system: AsPC1; experiment: MTS cell proliferation assay, AsPC1; assay type: cell-based, human; details: Homo sapiens, ASPC1
Description: as §1, with “Calif.). Each individual compound was tested in quadruplicate wells for each concentration, and the results were reported as mean absorption±s.e.” for “Calif.).”
as §2

[5] = Example 4 numbering, 72 h, read-out: IC50 MDA-MB-231 (Table 4)
[6] = Example 4 numbering, 72 h, >10 = no effect, read-out: IC50 Panc-1 (Table 4)
[7] = Example 4 numbering, 72 h, >10 = no effect, read-out: IC50 MCF-7 (Table 4)
[8] = Example 4 numbering, 72 h, >10 = no effect, read-out: IC50 AsPC1 (Table 4)
[9] = Table 2 numbering 1-14, read-out: IC50 MDA-MB-231 (Table 2)
[10] = Table 2 numbering 1-14, read-out: IC50 Panc-1 (Table 2)
[11] = Table 2 numbering 1-14, >10 = no effect, read-out: IC50 MCF-7 (Table 2)
[12] = Table 2 numbering 1-14, read-out: IC50 AsPC1 (Table 2)

O=C(Nc1ccc2c(c1)S(=O)(=O)C=C2)c1cc(Cl)ccc1O [Compd 12]
IC50 [1, 5]: 1.64 µM
IC50 [2, 6]: 2340 nM
IC50 [3, 7]: 910 nM
IC50 [4, 8]: 1920 nM

O=C(Nc1ccc2c(c1)S(=O)(=O)C=C2)c1cc(Cl)ccc1O [Compound 1]
IC50 [1, 9]: 1.64 µM
IC50 [2, 10]: 2340 nM
IC50 [3, 11]: 910 nM
IC50 [4, 12]: 1920 nM

C[C@H](NC(=O)c1cc(-c2ccccc2)nc2ccccc12)c1ccccc1 [Compound 8]
IC50 [1, 5]: 86 µM
IC50 [2, 6]: > 10000 nM
IC50 [3, 7]: 2240 nM
IC50 [4, 8]: > 10000 nM

C[C@H](NC(=O)c1cc(Cl)ccc1O)c1ccccc1 [Compound 9]
IC50 [1, 5]: 8.88 µM
IC50 [2, 6]: 8440 nM
IC50 [3, 7]: 900 nM
IC50 ([3]; Example 4 numbering, read-out: IC50 MCF-7 (Example 4)): 900 nM
IC50 [4, 8]: 7540 nM

N#C/C(=C\c1cccc(Br)n1)C(=O)Nc1ccc2c(c1)S(=O)(=O)C=C2 [Compound 10]
IC50 [1, 5]: 1.53 µM
IC50 [2, 6]: 1640 nM
IC50 [3, 7]: 3310 nM
IC50 [4, 8]: 1540 nM

COC1CS(=O)(=O)c2cc(NC(=O)c3cc(Cl)ccc3O)ccc21 (stereo not drawn) [Compound 14]
IC50 [1, 9]: 7.05 µM
IC50 [2, 10]: 8390 nM
IC50 [3, 11]: 6070 nM
IC50 [4, 12]: 8460 nM

N#C/C(=C\c1c[nH]c2ncccc12)C(=O)Nc1ccc2c(c1)S(=O)(=O)C=C2 [RMF-1-17, 2-Cyano-N-(1,1-dioxo-1H-1λ^6-benzo[b]thiophen-6-yl)-3-(1H-pyrrolo[2,3-b]pyridin-3-yl)acrylamide]
melting point: 300 to 301 °C

N#C/C(=C\C1CCCCC1)C(=O)Nc1ccc2c(c1)S(=O)(=O)C=C2 [RMF-1-20, 2-Cyano-3-cyclohexyl-N-(1,1-dioxo-1H-1λ^6-benzo[b]thiophen-6-yl)acrylamide]
melting point: 180 to 181 °C

N#C/C(=C\c1cccnc1)C(=O)Nc1ccc2c(c1)S(=O)(=O)C=C2 [RMF-1-22, 2-Cyano-N-(1,1-dioxo-1H-1λ^6-benzo[b]thiophen-6-yl)-3-pyridin-3-yl-acrylamide]
melting point: 255 to 256 °C

N#C/C(=C\c1ccncc1)C(=O)Nc1ccc2c(c1)S(=O)(=O)C=C2 [RMF-1-23, 2-Cyano-N-(1,1-dioxo-1H-1λ^6-benzo[b]thiophen-6-yl)-3-pyridin-4-yl-acrylamide]
melting point: 288 to 289 °C

N#C/C(=C\c1cccnc1F)C(=O)Nc1ccc2c(c1)S(=O)(=O)C=C2 [RMF-1-24, 2-Cyano-N-(1,1-dioxo-1H-1λ^6-benzo[b]thiophen-6-yl)-3-(2-fluoro-pyridin-3-yl)acrylamide]
melting point: 262 to 263 °C

N#C/C(=C\c1cccnc1Cl)C(=O)Nc1ccc2c(c1)S(=O)(=O)C=C2 [RMF-1-25, 3-(2-Chloro-pyridin-3-yl)-2-cyano-N-(1,1-dioxo-1H-1λ^6-benzo[b]thiophen-6-yl)acrylamide]
melting point: 251 to 252 °C

N#C/C(=C\c1cccnc1Br)C(=O)Nc1ccc2c(c1)S(=O)(=O)C=C2 [RMF-1-26, 3-(2-Bromopyridin-3-yl)-2-cyano-N-(1,1-dioxo-1H-1λ^6-benzo[b]thiophen-6-yl)acrylamide]
melting point: 242 to 243 °C

COc1ncccc1/C=C(\C#N)C(=O)Nc1ccc2c(c1)S(=O)(=O)C=C2 [RMF-1-27, 2-Cyano-N-(1,1-dioxo-1H-1λ^6-benzo[b]thiophen-6-yl)-3-(2-methoxy-pyridin-3-yl)acrylamide]
melting point: 261 to 262 °C

COc1ccc(/C=C(\C#N)C(=O)Nc2ccc3c(c2)S(=O)(=O)C=C3)cn1 [RMF-1-28, 2-Cyano-N-(1,1-dioxo-1H-1λ^6-benzo[b]thiophen-6-yl)-3-(6-methoxy-pyridin-3-yl)acrylamide]
melting point: 255 to 256 °C

N#C/C(=C\c1ccc(F)cc1)C(=O)Nc1ccc2c(c1)S(=O)(=O)C=C2 [RMF-1-29, 2-Cyano-N-(1,1-dioxo-1H-1λ^6-benzo[b]thiophen-6-yl)-3-(4-fluorophenyl)acrylamide]
melting point: 271 to 272 °C

N#C/C(=C\c1cccc(F)c1)C(=O)Nc1ccc2c(c1)S(=O)(=O)C=C2 [RMF-1-31, 2-Cyano-N-(1,1-dioxo-1H-1λ^6-benzo[b]thiophen-6-yl)-3-(3-fluorophenyl)acrylamide]
melting point: 245 to 246 °C

N#C/C(=C\c1cccc(Br)c1)C(=O)Nc1ccc2c(c1)S(=O)(=O)C=C2 [RMF-1-32, 3-(3-Bromophenyl)-2-cyano-N-(1,1-dioxo-1H-1λ^6-benzo[b]thiophen-6-yl)acrylamide]
melting point: 250 to 251 °C

N#C/C(=C\c1ccccc1Cl)C(=O)Nc1ccc2c(c1)S(=O)(=O)C=C2 [RMF-1-33, 3-(2-Chlorophenyl)-2-cyano-N-(1,1-dioxo-1H-1λ^6-benzo[b]thiophen-6-yl)acrylamide]
melting point: 242 to 243 °C

COc1cccc(/C=C(\C#N)C(=O)Nc2ccc3c(c2)S(=O)(=O)C=C3)c1 [RMF-1-35, 2-Cyano-N-(1,1-dioxo-1H-1λ^6-benzo[b]thiophen-6-yl)-3-(3-methoxyphenyl)acrylamide]
melting point: 245 to 246 °C

N#C/C(=C\c1ccccc1[N+](=O)[O-])C(=O)Nc1ccc2c(c1)S(=O)(=O)C=C2 [RMF-1-36, 2-Cyano-N-(1,1-dioxo-1H-1λ^6-benzo[b]thiophen-6-yl)-3-(2-nitrophenyl)acrylamide]
melting point: 254 to 255 °C

N#C/C(=C\c1ccc([N+](=O)[O-])cc1)C(=O)Nc1ccc2c(c1)S(=O)(=O)C=C2 [RMF-1-37, 2-Cyano-N-(1,1-dioxo-1H-1λ^6-benzo[b]thiophen-6-yl)-3-(4-nitrophenyl)acrylamide]
melting point: 272 to 273 °C

COc1cc(/C=C(\C#N)C(=O)Nc2ccc3c(c2)S(=O)(=O)C=C3)cc(OC)c1OC [RMF-1-38, 2-Cyano-N-(1,1-dioxo-1H-1λ^6-benzo[b]thiophen-6-yl)-3-(3,4,5-trimethoxyphenyl)acrylamide]
melting point: 224 to 225 °C
